Test results as given in patent US20170008888A1 (KYORIN PHARMACEUTICAL CO., LTD., priority 2014, published 2017).
Where two headings read alike, the source gives them in different places.

Key:
Type in all cases: binding
AMPKa1 or AMPKa2 = experiment: Probe-based (AX9989) kinase profiling in Jurkat lysate: AMPKa1 or AMPKa2
Summary of the method: (§1)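 Read-out: LC/MS intensity of desthiobiotinylated kinase active-site peptides, percent inhibition normalized to no-compound lysate. Jurkat lysate with 20 mM MnCl2 received compound for 15 min at room temperature, then 5 μM AX9989 probe; duplicates.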

TAO2 = biological target: T1, TAO2 (Homo sapiens, UniProt Q9UL54); experiment: Probe-based (AX9989) kinase profiling in Jurkat lysate: TAO2; settings: for inhibition at 0.1 µM: screening concentration 0.1 μM; for inhibition at 10 µM: screening concentration 10 μM
T1 construct: screened for activity against several kinases in Jurkat cells; endogenous in cells; host or cells: Jurkat cell lysate
T1 sequence (Q9UL54 1-1235): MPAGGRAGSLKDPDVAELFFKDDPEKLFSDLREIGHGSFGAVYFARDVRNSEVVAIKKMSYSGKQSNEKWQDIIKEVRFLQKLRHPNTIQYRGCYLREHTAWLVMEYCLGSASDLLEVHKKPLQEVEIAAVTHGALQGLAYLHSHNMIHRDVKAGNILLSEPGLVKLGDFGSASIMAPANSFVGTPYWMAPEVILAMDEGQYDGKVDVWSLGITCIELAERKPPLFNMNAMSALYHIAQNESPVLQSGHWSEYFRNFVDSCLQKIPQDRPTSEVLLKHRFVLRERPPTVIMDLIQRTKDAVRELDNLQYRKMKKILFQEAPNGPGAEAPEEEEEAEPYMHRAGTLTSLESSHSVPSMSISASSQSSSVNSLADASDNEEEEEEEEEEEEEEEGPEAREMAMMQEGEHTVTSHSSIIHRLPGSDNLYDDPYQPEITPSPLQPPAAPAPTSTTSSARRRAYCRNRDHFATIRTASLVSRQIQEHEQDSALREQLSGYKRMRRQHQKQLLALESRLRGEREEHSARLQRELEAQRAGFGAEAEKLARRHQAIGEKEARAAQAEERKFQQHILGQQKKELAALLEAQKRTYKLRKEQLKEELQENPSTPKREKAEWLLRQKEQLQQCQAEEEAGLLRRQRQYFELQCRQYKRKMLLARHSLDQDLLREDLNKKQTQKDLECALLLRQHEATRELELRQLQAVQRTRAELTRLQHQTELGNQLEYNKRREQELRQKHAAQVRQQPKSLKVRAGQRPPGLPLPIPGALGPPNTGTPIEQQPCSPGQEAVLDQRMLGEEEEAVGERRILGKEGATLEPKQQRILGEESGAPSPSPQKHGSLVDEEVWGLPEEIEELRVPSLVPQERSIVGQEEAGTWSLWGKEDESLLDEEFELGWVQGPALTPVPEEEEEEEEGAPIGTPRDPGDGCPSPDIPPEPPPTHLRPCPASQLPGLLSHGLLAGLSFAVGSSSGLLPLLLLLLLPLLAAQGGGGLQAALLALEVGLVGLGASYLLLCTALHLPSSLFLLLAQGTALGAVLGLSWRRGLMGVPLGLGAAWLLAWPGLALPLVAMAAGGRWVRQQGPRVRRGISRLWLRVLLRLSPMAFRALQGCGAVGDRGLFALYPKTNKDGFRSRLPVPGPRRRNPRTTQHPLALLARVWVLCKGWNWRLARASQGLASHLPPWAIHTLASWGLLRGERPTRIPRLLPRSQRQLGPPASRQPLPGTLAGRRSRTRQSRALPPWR
Summary of the method: as §1

ABL or ARG = experiment: Probe-based (AX9989) kinase profiling in Jurkat lysate: ABL or ARG
Summary of the method: as §1

[1] = biological target: T2, BRD4 bromodomain domain I [BRD4(1)] (Homo sapiens, UniProt O60885); experiment: BRD4 bromodomain domain 1 inhibition assay (TR-FRET); settings: screening concentration 10 μM
T2 construct: BRD4 bromodomain domain I [BRD4(1)]; purchased Cayman Chemicals
Summary of the method: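 0.5% DMSO, in triplicate, using Cayman BRD4(1) TR-FRET protocol with slight modification. 670/620 nm ratio normalized to 10 μM JQ1, with DMSO control set as 0% inhibition.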

[2] = screening concentration 1.0 μM, read-out: Kinase inhibition % at indicated screening concentration: TAO2
[3] = read-out: Kinase inhibition % at indicated screening concentration: TAO2
[4] = read-out: TAO2 Inhibition % at indicated screening concentration

| SMILES | Kinase inhibition % at indicated screening concentration: AMPKa1 or AMPKa2 (AMPKa1 or AMPKa2; screening concentration 1.0 μM) | inhibition at 1 µM (TAO2; [2]) | Kinase inhibition % at indicated screening concentration: ABL or ARG (ABL or ARG; screening concentration 1.0 μM) | inhibition at 10 µM [1] | Kinase inhibition % at indicated screening concentration: AMPKa1 or AMPKa2 (AMPKa1 or AMPKa2; screening concentration 0.1 μM) | inhibition at 0.1 µM (TAO2; [3]) | Kinase inhibition % at indicated screening concentration: ABL or ARG (ABL or ARG; screening concentration 0.1 μM) | other results |
| --- | --- | --- | --- | --- | --- | --- | --- | --- |
| CCOc1cc(C(=O)N2CCN(CCOCCO)CC2)ccc1Nc1cc2c(cn1)N(C)C(=O)c1ccccc1N2C [Compound 6] | E (E is ≦35%) | ≤ 35% | E (E is ≦35%) | > 85% | – | – | – | – |
| Cc1cc(CN2CC[C@@H](N3CCCC3)C2)ccc1Nc1cc2c(cn1)N(C)C(=O)c1ccccc1N2C [Compound 49] | – | – | – | > 85% | E (E is ≦35%) | ≤ 35% | E (E is ≦35%) | – |
| CN1C(=O)c2occc2N(C)c2cc(N[C@H]3CC[C@H](N)CC3)ncc21 [Compound 53] | E (E is ≦35%) | ≤ 35% | E (E is ≦35%) | 70 to 85% | – | – | – | – |
| CCOc1cc(C(=O)NCCCN(CC)CC)ccc1Nc1cc2c(cn1)N(C)C(=O)c1ccccc1N2C [Compound 54] | E (E is ≦35%) | ≤ 35% | E (E is ≦35%) | > 85% | – | – | – | – |
| CCOc1cc(C(=O)NCCN(C(C)C)C(C)C)ccc1Nc1cc2c(cn1)N(C)C(=O)c1ccccc1N2C [Compound 55] | – | – | – | 70 to 85% | E (E is ≦35%) | ≤ 35% | E (E is ≦35%) | – |
| CCOc1cc(C(=O)N2CC[C@@H](N3CCCCC3)C2)ccc1Nc1cc2c(cn1)N(C)C(=O)c1occc1N2C [Compound 56] | – | – | – | > 85% | E (E is ≦35%) | ≤ 35% | E (E is ≦35%) | – |
| CCOc1cc(C(=O)N2CCC(N3CCN(C)CC3)CC2)ccc1Nc1cc2c(cn1)N(C)C(=O)c1ccccc1N2C [Compound 61] | E (E is ≦35%) | ≤ 35% | E (E is ≦35%) | > 85% | – | – | – | – |
| CN1C(=O)c2ccccc2N(C)c2cc(NC3CCC(C(=O)NC4CCOCC4)CC3)ncc21 (centres unmarked) [Compound 64] | E (E is ≦35%) | ≤ 35% | E (E is ≦35%) | < 70% | – | – | – | – |
| CCOc1cc(C(=O)N2CCC(N3CCN(C)CC3)CC2)ccc1Nc1cc2c(cn1)N(C)C(=O)c1occc1N2C [Compound 65] | – | – | – | > 85% | E (E is ≦35%) | ≤ 35% | E (E is ≦35%) | – |
| CCOc1cc(C(=O)NCCO)ccc1Nc1cc2c(cn1)N(C)C(=O)c1ccccc1N2C [Compound 66] | E (E is ≦35%) | ≤ 35% | E (E is ≦35%) | < 70% | – | – | – | – |
| CCOc1cc(C(=O)N2CCC(N3CCN(C)CC3)CC2)ccc1Nc1cc2c(cn1)N(C)C(C(F)(F)F)c1ccccc1N2C (centres unmarked) [Compound T47] | – | – | – | – | – | – | – | AMPKa1 or AMPKa2 Inhibition % at indicated screening concentration (AMPKa1 or AMPKa2; screening concentration 10 μM): E (E is ≦35%); inhibition at 10 µM (TAO2; [4]): ≤ 35%; ABL or ARG Inhibition % at indicated screening concentration (ABL or ARG; screening concentration 10 μM): E (E is ≦35%) |
| CCOc1cc(C(=O)N2CCC(NCCF)C2)ccc1Nc1cc2c(cn1)N(C)C(C(F)(F)F)c1ccccc1N2C (centres unmarked) [Compound T54] | – | – | – | – | – | – | – | AMPKa1 or AMPKa2 Inhibition % at indicated screening concentration (AMPKa1 or AMPKa2; screening concentration 10 μM): E (E is ≦35%); inhibition at 10 µM (TAO2; [4]): ≤ 35%; ABL or ARG Inhibition % at indicated screening concentration (ABL or ARG; screening concentration 10 μM): E (E is ≦35%) |
| CCOc1cc(C(=O)N[C@H]2CC[C@@H](O)CC2)ccc1Nc1cc2c(cn1)N(C)C(=O)c1ccccc1N2C [Compound T63] | – | – | – | – | – | – | – | AMPKa1 or AMPKa2 Inhibition % at indicated screening concentration (AMPKa1 or AMPKa2; screening concentration 1 μM): E (E is ≦35%); inhibition at 1 µM (TAO2; screening concentration 1 μM, read-out: TAO2 Inhibition % at indicated screening concentration): ≤ 35%; ABL or ARG Inhibition % at indicated screening concentration (ABL or ARG; screening concentration 1 μM): E (E is ≦35%) |

Continued, in another order:

| Kinase inhibition % at indicated screening concentration: AMPKa1 or AMPKa2 (AMPKa1 or AMPKa2; screening concentration 1.0 μM) | inhibition at 1 µM (TAO2; [2]) | Kinase inhibition % at indicated screening concentration: ABL or ARG (ABL or ARG; screening concentration 1.0 μM) | inhibition at 10 µM [1] | Kinase inhibition % at indicated screening concentration: AMPKa1 or AMPKa2 (AMPKa1 or AMPKa2; screening concentration 0.1 μM) | inhibition at 0.1 µM (TAO2; [3]) | Kinase inhibition % at indicated screening concentration: ABL or ARG (ABL or ARG; screening concentration 0.1 μM) | SMILES | other results |
| --- | --- | --- | --- | --- | --- | --- | --- | --- |
| E (E is ≦35%) | ≤ 35% | E (E is ≦35%) | 70 to 85% | – | – | – | CCOc1cc(C(=O)N2CCCN(C)CC2)ccc1Nc1cc2c(cn1)N(C)C(=O)c1ccccc1N2C [Compound 8] | – |
| – | – | – | 70 to 85% | E (E is ≦35%) | ≤ 35% | E (E is ≦35%) | CCOc1cc(C(=O)N2CCN(CC3CC3)CC2)ccc1Nc1cc2c(cn1)N(C)C(=O)c1ccccc1N2C [Compound 10] | – |
| E (E is ≦35%) | ≤ 35% | E (E is ≦35%) | > 85% | – | – | – | CCOc1cc(C(=O)N2CCC(N3CCCC3)CC2)ccc1Nc1cc2c(cn1)N(C)C(=O)c1ccccc1N2C [Compound 46, 3-(2-Ethoxy-4-(4-(pyrrolidin-1-yl)piperidine-1-carbonyl)phenylamino)-5,11-dimethyl-5H-benzo[e]pyrido[3,4-b][1,4]diazepin-10(11H)-one] | – |
| – | – | – | < 70% | E (E is ≦35%) | ≤ 35% | E (E is ≦35%) | CCOc1cc(C(N)=O)ccc1Nc1cc2c(cn1)N(C)C(=O)c1ccccc1N2C [Compound 51] | – |
| E (E is ≦35%) | ≤ 35% | E (E is ≦35%) | 70 to 85% | – | – | – | CCOc1cc(C(=O)N2CCC(O)CC2)ccc1Nc1cc2c(cn1)N(C)C(=O)c1ccccc1N2C [Compound 52] | – |
| E (E is ≦35%) | ≤ 35% | E (E is ≦35%) | < 70% | – | – | – | CCOc1cc(C(=O)NCC2CC2)ccc1Nc1cc2c(cn1)N(C)C(=O)c1ccccc1N2C [Compound 57] | – |
| E (E is ≦35%) | ≤ 35% | E (E is ≦35%) | 70 to 85% | – | – | – | CCOc1cc(C(=O)N2CCNCC2)ccc1Nc1cc2c(cn1)N(C)C(=O)c1ccccc1N2C [Compound 62] | – |
| E (E is ≦35%) | ≤ 35% | E (E is ≦35%) | 70 to 85% | – | – | – | CCOc1cc(C(=O)N2CCC(OC)CC2)ccc1Nc1cc2c(cn1)N(C)C(=O)c1ccccc1N2C [Compound 63] | – |
| – | – | – | > 85% | E (E is ≦35%) | ≤ 35% | E (E is ≦35%) | CCOc1cc(C(=O)N2CC[C@@H](N(CC)CC)C2)ccc1Nc1cc2c(cn1)N(C)C(=O)c1occc1N2C [Compound 67] | – |
| E (E is ≦35%) | ≤ 35% | E (E is ≦35%) | < 70% | – | – | – | CCOc1cc(C(=O)N[C@@H]2CCCOC2)ccc1Nc1cc2c(cn1)N(C)C(=O)c1ccccc1N2C [Compound 69] | – |
